Data: article PMC6347521 (Current protocols in toxicology, 2018)
Where two headings read alike, the source gives them in different places.

How the values were obtained:
[1] = tested on: Hep3B human hepatoma cell line; experiment: cells; type: cell-based; conditions: read-out: IC50 TMRM
2D = conditions: read-out: IC50 2D (literature review), cited from earlier work
[2] = tested on: Hep3B human hepatoma cell line; experiment: cells; type: cell-based; conditions: read-out: IC50 mBCl
[3] = tested on: Hep3B human hepatoma cell line; experiment: cells; type: cell-based; conditions: read-out: IC50 Hoechst
[4] = tested on: Hep3B human hepatoma cell line; experiment: cells; type: cell-based; conditions: read-out: IC50 Calcein AM
rat = conditions: ref not given; cited from earlier work
[5] = 2D cell culture, ref literature review

Compound	IC50 ([1]; Homo sapiens, Hep3B, 48 h)	IC50 (2D)	IC50 ([2]; Homo sapiens, Hep3B, 48 h)	IC50 ([3]; Homo sapiens, Hep3B, 48 h)	IC50 ([4]; Homo sapiens, Hep3B, 48 h)	LD50 mg/kg (rat oral) (rat)	IC50 (2D; [5])	IC50 [1]	IC50 [2]	IC50 [3]	IC50 [4]
CC(=O)Nc1ccc(O)cc1 [Acetaminophen]	> 2100 µM	29800 µM	> 2100 µM	> 2100 µM	> 2100 µM						
CC[C@H](C)C(=O)O[C@H]1C[C@@H](C)C=C2C=C[C@H](C)[C@H](CC[C@@H]3C[C@@H](O)CC(=O)O3)[C@H]21 [Lovastatin]	152 ± 6.7 µM	20 ± 3.7 µM	195 ± 5 µM	188 ± 17.7 µM	150 µM	5000 mg/kg					
CC1=CC(=O)c2ccccc2C1=O [Menadione]	11.5 ± 2.5 µM		15 ± 2.3 µM	20 ± 1 µM	11 ± 3.8 µM		13.5 ± 3.6 µM				
C=C(C)[C@H]1Cc2c(ccc3c2O[C@@H]2COc4cc(OC)c(OC)cc4[C@@H]2C3=O)O1 [Rotenone]	0.6 ± 0.3 µM		1.7 ± 0.7 µM	3 µM	8 ± 6 µM	30 mg/kg	1.7 ± 1.2 µM				
O=C([O-])CC(O)(CC(=O)[O-])C(=O)[O-].[Na+].[Na+].[Na+] [Sodium citrate]		> 1400 µM						> 1400 µM	> 1400 µM	> 1400 µM	> 1400 µM
CC/C(=C(\c1ccccc1)c1ccc(OCCN(C)C)cc1)c1ccccc1 [Tamoxifen]						4100 mg/kg					
